Measurements as given in US20100261711A1, “SELECTIVE ANTICONVULSANT AGENTS AND THEIR USES” (WiSys Technology Foundation, priority 2009, published 2010).
Read-outs that look alike come from different tables or passages of the source.

Experiments:
[1] = target: T1, GABAA/α4 (α4β3γ2 GABAA receptors) (Homo sapiens, UniProt P18507+P48169); assay: Competitive binding assay, [3H]flunitrazepam
T1 construct: expressed in transfected cells
Description: (§1) The GABAA subunit selectivity of several compounds prepared as described above were determined using competitive binding assays. […] Membranes were harvested with a Brandel cell harvester followed by three ice-cold washes onto polyethyleneimine-pretreated (0.3%) Whatman GF/C filters. Filters were dried overnight and then soaked in Ecoscint, a liquid scintillation cocktail (National Diagnostics; Atlanta, Ga.). Bound radioactivity was quantified by liquid scintillation counting. Membrane protein concentrations were determined using an assay kit from Bio-Rad (Hercules, Calif.) with bovine serum albumin as the standard.

[2] = target: T2, GABAA/α6 (α6β3γ2 GABAA receptors) (Homo sapiens, UniProt P18507+Q16445); assay: Competitive binding assay, [3H]flunitrazepam
T2 construct: expressed in transfected cells
Description: as §1

MES-induced seizures = assay: Maximal electroshock test (MES), mice; assay type: in vivo; conditions: Mice IP
Description: (§2) The benzodiazepine derivative compounds selective for GABAa receptor subunits were tested for the ability to suppress seizures in several standard rat and mouse models of epilepsy. […] The standard models incorporated into anticonvulsant screening include the maximal electroshock test (MES), the subcutaneous Metrazol test (scMet), and evaluations of toxicity (TOX). The data for each condition is presented as a ratio of either the number of animals protected or toxic (loss of locomotor activity) over the number of animals tested at a given time point and dose.
The MES is a model for generalized tonic-clonic seizures and provides an indication of a compound's ability to prevent seizure spread when all neuronal circuits in the brain are maximally active. These seizures are highly reproducible and are electrophysiologically consistent with human seizures. For all tests based on MES convulsions, 60 Hz of alternating current (50 mA in mice, 150 in rats) is delivered for by corneal electrodes which have been primed with an electrolyte solution containing an anesthetic agent (0.5% tetracaine HCL). For Test 1, mice are tested at various intervals following doses of 30, 100 and 300 mg/kg of test compound given by ip injection of a volume of 0.01 mL/g. In Test 2, rats are tested after a dose of 30 mg/kg (po) in a volume of 0.04 mL/g. Test 8 uses varying doses administered via i.p. injection, again in a volume of 0.04 ml/g. […] In Antiepileptic Drugs, Levy, R. H. M., Meldrum, B. S., Eds.; Raven Press: New York, pp 99-110, 1995b.).

[3] = test system: Metrazol-induced clonic seizures; assay: Subcutaneous Metrazol test (scMet), mice; assay type: in vivo; conditions: Mice IP
Description: as §2
(§3) Subcutaneous injection of the convulsant Metrazol produces clonic seizures in laboratory animals. […] Animals are pretreated with various doses of the test compound (in a similar manner to the MES test, although a dose of 50 mg/kg (po) is the standard for Test 2 scMet). At the previously determined TPE of the test compound, the dose of Metrazol which will induce convulsions in 97% of animals (CD97: 85 mg/kg mice) is injected into a loose fold of skin in the midline of the neck. […] An episode of clonic spasms, approximately 3-5 seconds, of the fore and/or hindlimbs, jaws, or vibrissae is taken as the endpoint.

[4] = test system: minimal muscular or neurological impairment; assay: Toxicity (TOX), rotorod procedure, mice; assay type: in vivo; conditions: Mice IP
Description: as §2
(§4) To assess a compound's undesirable side effects (toxicity), animals are monitored for overt signs of impaired neurological or muscular function. […] When a mouse is placed on a rod that rotates at a speed of 6 rpm, the animal can maintain its equilibrium for long periods of time. The animal is considered toxic if it falls off this rotating rod three times during a 1-min period. In rats, minimal motor deficit is indicated by ataxia, which is manifested by an abnormal, uncoordinated gait. Rats used for evaluating toxicity are examined before the test drug is administered, since individual animals may have peculiarities in gait, equilibrium, placing response, etc., which might be attributed erroneously to the test substance.

[5] = test system: Metrazol-induced clonic seizures; assay: Subcutaneous Metrazol test (scMet), rats; assay type: in vivo; conditions: Rat PO, 50 mg/kg
Description: as §2, §3

[6] = test system: minimal motor deficit (ataxia, abnormal gait); assay: Toxicity (TOX), minimal motor deficit, rats; assay type: in vivo; conditions: Rat PO, 50 mg/kg
Description: as §2, §4

6 Hz psychomotor seizure = assay: Minimal clonic seizure (6 Hz) test; assay type: in vivo; conditions: Mice IP; for ED50: Mus musculus, ip, 1 h, 1 Hr, read-out: ED50 (6 Hz)
Source text: Like the maximal electroshock (MES) test, the minimal clonic seizure (6 Hz) test is used to assess a compound's efficacy against electrically-induced seizures but uses a lower frequency (6 Hz) and longer duration of stimulation (3 s). Test compounds are pre-administered to mice via ip injection. […] Untreated mice will display seizures characterized by a minimal clonic phase followed by stereotyped, automatistic behaviors described originally as being similar to the aura of human subjects with partial seizures. Animals not displaying this behavior are considered protected (Table 10).

[7] = target: T3, GABAA/α1 (α1β3γ2 GABAA receptors) (Homo sapiens, UniProt P14867+P18507); assay: Competitive binding assay, [3H]flunitrazepam
T3 construct: expressed in transfected cells
Description: as §1

[8] = target: T4, GABAA/α2 (α2β3γ2 GABAA receptors) (Homo sapiens, UniProt P18507+P47869); assay: Competitive binding assay, [3H]flunitrazepam
T4 construct: expressed in transfected cells
Description: as §1

[9] = target: T5, GABAA/α3 (α3β3γ2 GABAA receptors) (Homo sapiens, UniProt P18507+P34903); assay: Competitive binding assay, [3H]flunitrazepam
T5 construct: expressed in transfected cells
Description: as §1

[10] = target: T6, GABAA/α5 (α5β3γ2 GABAA receptors) (Homo sapiens, UniProt P18507+P31644); assay: Competitive binding assay, [3H]flunitrazepam
T6 construct: expressed in transfected cells
Description: as §1

[11] = Binding Affinity at GABAA/α1, αxβ3γ2, [3H]flunitrazepam competition
[12] = Binding Affinity at GABAA/α2, αxβ3γ2, [3H]flunitrazepam competition
[13] = Binding Affinity at GABAA/α3, αxβ3γ2, [3H]flunitrazepam competition
[14] = Binding Affinity at GABAA/α5, αxβ3γ2, [3H]flunitrazepam competition

## C#Cc1ccc2c(c1)C(c1ccccc1F)=NC(C)c1c(C(=O)OCC)ncn1-2 (single isomer, unassigned) [SH-053-2′F-S-CH3, 8-Ethynyl-6-(2-fluorophenyl)-4-methyl-4H-2,5,10b-triazabenzo[e]azulene-3-carboxylic acid ethyl ester]
[1]
  Ki: > 5000 nM
[2]
  Ki: > 5000 nM
MES-induced seizures; 30 mg/kg, 0.5 Hr
  MES, animals protected/tested: 0/1
MES-induced seizures; 30 mg/kg, 4.0 Hr
  MES, animals protected/tested: 0/1
MES-induced seizures; 100 mg/kg, 0.5 hr
  MES, animals protected/tested: 0/3
MES-induced seizures; 100 mg/kg, 4.0 hr
  MES, animals protected/tested: 0/3
MES-induced seizures; 300 mg/kg, 0.5 Hr
  MES, animals protected/tested: 0/1
MES-induced seizures; 300 mg/kg, 4.0 Hr
  MES, animals protected/tested: 0/1
[3]; 30 mg/kg, 0.5 Hr
  scMet, animals protected/tested: 0/1
[3]; 30 mg/kg, 4.0 Hr
  scMet, animals protected/tested: 0/1
[3]; 100 mg/kg, 0.5 hr
  scMet, animals protected/tested: 2/5
[3]; 100 mg/kg, 4.0 hr
  scMet, animals protected/tested: 0/1
[3]; 300 mg/kg, 0.5 Hr
  scMet, animals protected/tested: 1/1
[3]; 300 mg/kg, 4.0 Hr
  scMet, animals protected/tested: 0/1
[4]; 30 mg/kg, 0.5 Hr
  TOX (Rotorod Test), animals toxic/tested: 0/4
[4]; 30 mg/kg, 4.0 Hr
  TOX (Rotorod Test), animals toxic/tested: 0/2
[4]; 100 mg/kg, 0.5 hr
  TOX (Rotorod Test), animals toxic/tested: 1/8
[4]; 100 mg/kg, 4.0 hr
  TOX (Rotorod Test), animals toxic/tested: 0/4
[4]; 300 mg/kg, 0.5 Hr
  TOX (Rotorod Test), animals toxic/tested: 2/4
[4]; 300 mg/kg, 4.0 Hr
  TOX (Rotorod Test), animals toxic/tested: 0/2
[5]; 0.5 h
  scMet, animals protected/tested: 0/4
[5]; 1.0 h
  scMet, animals protected/tested: 0/4
[5]; 2.0 h
  scMet, animals protected/tested: 1/4
[5]; 4.0 h
  scMet, animals protected/tested: 0/4
[5]; […]
  scMet, animals protected/tested: 1/4
[6]; 0.5 h
  Tox, animals toxic/tested: 0/4
[6]; 1.0 h
  Tox, animals toxic/tested: 0/4
[6]; 2.0 h
  Tox, animals toxic/tested: 0/4
[6]; 4.0 h
  Tox, animals toxic/tested: 0/4
[6]; […]
  Tox, animals toxic/tested: 0/4
6 Hz psychomotor seizure; 30 mg/kg, 22 mA, 1.0 Hr
  6 Hz Time to Peak Effect, protected/tested: 6/8
6 Hz psychomotor seizure; 30 mg/kg, 22 mA, 2.0 Hr
  6 Hz Time to Peak Effect, protected/tested: 2/8
6 Hz psychomotor seizure; 50 mg/kg, 22 mA, 0.5 Hr
  6 Hz Time to Peak Effect, protected/tested: 1/4
6 Hz psychomotor seizure; 50 mg/kg, 22 mA, 1.0 Hr
  6 Hz Time to Peak Effect, protected/tested: 3/4
6 Hz psychomotor seizure; 50 mg/kg, 22 mA, 2.0 Hr
  6 Hz Time to Peak Effect, protected/tested: 3/4
6 Hz psychomotor seizure; 100 mg/kg, 22 mA, 0.25 Hr
  6 Hz Time to Peak Effect, protected/tested: 2/4
6 Hz psychomotor seizure; 100 mg/kg, 22 mA, 0.5 Hr
  6 Hz Time to Peak Effect, protected/tested: 4/4
6 Hz psychomotor seizure; 100 mg/kg, 22 mA, 1.0 Hr
  6 Hz Time to Peak Effect, protected/tested: 4/4
6 Hz psychomotor seizure; 100 mg/kg, 22 mA, 2.0 Hr
  6 Hz Time to Peak Effect, protected/tested: 4/4
6 Hz psychomotor seizure; 100 mg/kg, 22 mA, 4.0 Hr
  6 Hz Time to Peak Effect, protected/tested: 2/4
6 Hz psychomotor seizure; 100 mg/kg, 32 mA, 0.25 Hr
  6 Hz Time to Peak Effect, protected/tested: 2/4
6 Hz psychomotor seizure; 100 mg/kg, 32 mA, 0.5 Hr
  6 Hz Time to Peak Effect, protected/tested: 1/4
6 Hz psychomotor seizure; 100 mg/kg, 32 mA, 1.0 Hr
  6 Hz Time to Peak Effect, protected/tested: 4/4
6 Hz psychomotor seizure; 100 mg/kg, 32 mA, 2.0 Hr
  6 Hz Time to Peak Effect, protected/tested: 2/4
6 Hz psychomotor seizure; 100 mg/kg, 32 mA, 4.0 Hr
  6 Hz Time to Peak Effect, protected/tested: 2/4
6 Hz psychomotor seizure; 22 mA
  ED50: 14.2 mg/kg
6 Hz psychomotor seizure; 32 mA
  ED50: 71.2 mg/kg

## C[Si](C)(C)C#Cc1ccc2c(c1)C(c1ccccc1F)=NCc1c(C(=O)OCC(F)(F)F)ncn1-2 [JYI-53, Trifluoroethyl-8-trimethylsilylacetylenyl-6-(2′-fluorophenyl)-4H-benzo[f]imidazo[1,5-a][1,4]diazepine-3-carboxylate]
[7]; [11]
  Ki: 77.4 nM
[8]; [12]
  Ki: 40.4 nM
[9]; αxβ3γ2, [3H]flunitrazepam competition, read-out: Binding Affinity at GABAA/α3
  Ki: 183 nM
[10]; αxβ3γ2, [3H]flunitrazepam competition, read-out: Binding Affinity at GABAA/α5
  Ki: 133 nM
[2]; αxβ3γ2, [3H]flunitrazepam competition, read-out: Binding Affinity at GABAA/α6
  Ki: 3650 nM

## C#Cc1ccc2c(c1)C(c1ccccc1F)=NC(C)c1c(C(=O)OCC)ncn1-2 (single isomer, unassigned) [SH-053-2′F-R-CH3, 8-Ethynyl-6-(2-fluorophenyl)-4-methyl-4H-2,5,10b-triaza-benzo[e]azulene-3-carboxylic acid ethyl ester]
[1]
  Ki: > 5000 nM
[2]
  Ki: > 5000 nM

## C#Cc1ccc2c(c1)C(c1cccs1)=NCc1c(C(=O)OCC)ncn1-2 [JC 221 (76), Ethyl 8-acetyleno-6-(2′-thienyl)-4H-benzo[f]imidazo[1,5-a][1,4]diazepine-3-carboxylate]
[7]; αxβ3γ2, [3H]flunitrazepam competition, read-out: Binding Affinity at GABAA/α1
  Ki: 146 nM
[8]; αxβ3γ2, [3H]flunitrazepam competition, read-out: Binding Affinity at GABAA/α2
  Ki: 35 nM
[9]; [13]
  Ki: 182 nM
[10]; [14]
  Ki: 14.3 nM
[2]
  Ki: 362 nM
MES-induced seizures; 100 mg/kg, 0.5 hr
  MES, animals protected/tested: 0/3
MES-induced seizures; 100 mg/kg, 4.0 hr
  MES, animals protected/tested: 0/3
[3]; 100 mg/kg, 0.5 hr
  scMet, animals protected/tested: 0/1
[3]; 100 mg/kg, 4.0 hr
  scMet, animals protected/tested: 0/1
[4]; 100 mg/kg, 0.5 hr
  TOX (Rotorod Test), animals toxic/tested: 0/8
[4]; 100 mg/kg, 4.0 hr
  TOX (Rotorod Test), animals toxic/tested: 0/4

## CN1C(=O)CN=C(c2ccccc2)c2cc(Cl)ccc21 [Diazepam, reference compound]
[1]
  Ki: > 1000 nM
[2]
  Ki: > 1000 nM

## C#Cc1ccc2c(c1)C(c1ccccc1)=NC(C)c1c(C(=O)OCC)ncn1-2 (single isomer, unassigned) [SH-053-S-CH3, 8-Ethynyl-4-methyl-6-phenyl-4H-2,5,10b-triaza-benzo[e]azulene-3-carboxylic acid ethyl ester]
[7]; [11]
  Ki: 1670 nM
[8]; [12]
  Ki: 1260 nM
[9]; [13]
  Ki: 1250 nM
[1]
  Ki: > 5000 nM
[10]; [14]
  Ki: 206 nM
[2]
  Ki: > 5000 nM

## C#Cc1ccc2c(c1)C(c1ccccc1)=NC(C)c1c(C(=O)OCC)ncn1-2 (single isomer, unassigned) [SH-053-R-CH3, 8-Ethynyl-4-methyl-6-phenyl-4H-2,5,10b-triaza-benzo[e]azulene-3-carboxylic acid ethyl ester]
[7]; [11]
  Ki: 2030 nM
[8]; [12]
  Ki: 2380 nM
[9]; [13]
  Ki: 1180 nM
[1]; read-out: Binding Affinity at GABAA/α4, αxβ3γ2, [3H]flunitrazepam competition
  Ki: > 5000 nM
[10]; [14]
  Ki: 949 nM
[2]; read-out: Binding Affinity at GABAA/α6, αxβ3γ2, [3H]flunitrazepam competition
  Ki: > 5000 nM
